Test results taken from patent publication US11234979B2, “Heteroaryl compounds as muscarinic M1 receptor positive allosteric modulators” (SUVEN LIFE SCIENCES LIMITED, priority 2017, dated 2022).
pEC50: −log10 of the molar value.

Molecular target: T1, recombinant human Muscarinic M1 receptor (Homo sapiens, UniProt P11229)
T1 construct: expressed in transfected cells
T1 sequence (P11229 1-460): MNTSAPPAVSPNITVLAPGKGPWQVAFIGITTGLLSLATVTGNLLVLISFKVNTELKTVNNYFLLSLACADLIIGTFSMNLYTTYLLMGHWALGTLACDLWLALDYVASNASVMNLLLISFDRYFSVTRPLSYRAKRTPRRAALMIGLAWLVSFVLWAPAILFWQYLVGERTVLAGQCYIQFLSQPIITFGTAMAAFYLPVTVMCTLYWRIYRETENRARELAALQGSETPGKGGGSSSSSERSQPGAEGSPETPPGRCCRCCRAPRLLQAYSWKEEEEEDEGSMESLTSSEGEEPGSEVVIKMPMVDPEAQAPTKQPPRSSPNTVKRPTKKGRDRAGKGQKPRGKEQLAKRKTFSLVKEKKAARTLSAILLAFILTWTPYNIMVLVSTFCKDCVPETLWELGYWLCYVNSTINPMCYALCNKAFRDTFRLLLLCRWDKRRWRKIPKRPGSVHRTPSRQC
Test: Allosteric potency EC50 for Muscarinic M1 receptor, CHO pCRE-Luc reporter assay with EC20 of acetylcholine
Format: cell-based
Conditions: CHO cells, in presence of EC20 of acetylcholine, 4 hours
Procedure: Determination of Allosteric Potency EC50 Values for Muscarinic M1 Receptor:
A stable CHO cell line expressing recombinant human Muscarinic M1 receptor and pCRE-Luc reporter system was used for cell-based assay. The assay offers a non-radioactive based approach to determine binding of a compound to GPCRs. In this specific assay, the level of intracellular cyclic AMP which is modulated by activation or inhibition of the receptor is measured. The recombinant cells harbor luciferase reporter gene under the control of cAMP response element.
The above cells were grown in 96 well clear bottom white plates in Hams F12 medium containing 10% fetal bovine serum (FBS). Prior to the addition of compounds or standard agonist, cells were serum starved overnight. Increasing concentrations of test compounds were added along with EC20 of acetylcholine in OptiMEM medium to the cells. The incubation was continued at 37° C. in CO2 incubator for 4 hours. Medium was removed and cells were washed with phosphate buffered saline. The cells were lysed and luciferase activity was measured in a Luminometer. Luminescence counts in each concentrations of test item were normalized to the acetylcholine induced maximum response and the data was analyzed using Graphpad software. EC50 values of the compounds were defined as the concentration required in stimulating the luciferase activity by 50% in presence of EC20 of acetylcholine.

| SMILES | pEC50 |
| --- | --- |
| O=C(N[C@H]1CCCC[C@@H]1O)c1cc(Cc2ccc(Br)cc2)c2cccnn12 [Example 1, N-(cis-1S,2S-2-Hydroxycyclohexyl)-5-(4-bromobenzyl)-pyrrolo[1,2-b]pyridazine-7-carboxamide] | 5.83 |
| O=C(N[C@H]1CCCC[C@@H]1O)c1cc(Cc2cc(Br)ccc2F)c2cccnn12 [Example 2, N-(cis-1S,2S-2-Hydroxycyclohexyl)-5-(5-bromo-2-fluorobenzyl)-pyrrolo[1,2-b]pyridazine-7-carboxamide] | 6.38 |
| O=C(N[C@H]1CCCC[C@@H]1O)c1cc(Cc2ccc(Br)nc2)c2cccnn12 [Example 5, N-(cis-1S,2S-2-Hydroxycyclohexyl)-5-(2-bromo-pyridin-5-ylmethyl)-pyrrolo[1,2-b]pyridazine-7-carboxamide] | 5.67 |
| COc1cccc(Cc2cc(C(=O)N[C@H]3CCCC[C@@H]3O)n3ncccc23)c1 [Example 6, N-(cis-1S,2S-2-Hydroxycyclohexyl)-5-(3-methoxybenzyl)-pyrrolo[1,2-b]pyridazine-7-carboxamide] | 5.52 |
| O=C(N[C@H]1CCCC[C@@H]1O)c1cc(Cc2ccc(F)cc2F)c2cccnn12 [Example 7, N-(cis-1S,2S-2-Hydroxycyclohexyl)-5-(2,4-difluorobenzyl)-pyrrolo[1,2-b]pyridazine-7-carboxamide] | 6.11 |
| O=C(N[C@H]1CCCC[C@@H]1O)c1cc(Cc2ccc(F)cc2)c2cccnn12 [Example 8, N-(cis-1S,2S-2-Hydroxycyclohexyl)-5-(4-fluorobenzyl)-pyrrolo[1,2-b]pyridazine-7-carboxamide] | 6.06 |
| O=C(N[C@H]1CCCC[C@@H]1O)c1cc(Cc2cccc(F)c2F)c2cccnn12 [Example 9, N-(cis-1S,2S-2-Hydroxycyclohexyl)-5-(2,3-difluorobenzyl)-pyrrolo[1,2-b]pyridazine-7-carboxamide] | 5.68 |
| COc1ccc(Cc2cc(C(=O)N[C@H]3CCCC[C@@H]3O)n3ncccc23)cc1F [Example 10, N-(cis-1S,2S-2-Hydroxycyclohexyl)-5-(3-fluoro-4-methoxybenzyl)-pyrrolo[1,2-b]pyridazine-7-carboxamide] | 5.91 |
| O=C(N[C@H]1CCCC[C@@H]1O)c1cc(Cc2ccnc(Cl)c2)c2cccnn12 [Example 11, N-(cis-1S,2S-2-Hydroxycyclohexyl)-5-(2-chloro-pyridin-4-ylmethyl)-pyrrolo[1,2-b]pyridazine-7-carboxamide] | 5.89 |
| COc1cc(Cc2cc(C(=O)N[C@H]3CCCC[C@@H]3O)n3ncccc23)ccc1F [Example 12, N-(cis-1S,2S-2-Hydroxycyclohexyl)-5-(4-fluoro-3-methoxybenzyl)-pyrrolo[1,2-b]pyridazine-7-carboxamide] | 5.87 |
| O=C(N[C@H]1CCCC[C@@H]1O)c1cc(Cc2ccccc2F)c2cccnn12 [Example 13, N-(cis-1S,2S-2-Hydroxycyclohexyl)-5-(2-fluorobenzyl)-pyrrolo[1,2-b]pyridazine-7-carboxamide] | 5.75 |
| COc1ccc(Cc2cc(C(=O)N[C@H]3CCCC[C@@H]3O)n3ncccc23)c(F)c1 [Example 14, N-(cis-1S,2S-2-Hydroxycyclohexyl)-5-(2-fluoro-4-methoxybenzyl)-pyrrolo[1,2-b]pyridazine-7-carboxamide] | 5.97 |
| O=C(N[C@H]1CCCC[C@@H]1O)c1cc(Cc2ccc(F)c(F)c2)c2cccnn12 [Example 15, N-(cis-1S,2S-2-Hydroxycyclohexyl)-5-(3,4-difluorobenzyl)-pyrrolo[1,2-b]pyridazine-7-carboxamide] | 5.82 |
| O=C(N[C@H]1CCCC[C@@H]1O)c1cc(Cc2ccc(Cl)nc2)c2cccnn12 [Example 16, N-(cis-1S,2S-2-Hydroxycyclohexyl)-5-(2-chloro-pyridin-5-ylmethyl)-pyrrolo[1,2-b]pyridazine-7-carboxamide] | 5.56 |
| O=C(NC1CCOCC1)c1cc(Cc2ccc(Cl)nc2)c2cccnn12 [Example 17, N-(Tetrahydropyran-4-yl)-5-(2-chloropyridin-5-ylmethyl)-pyrrolo[1,2-b]pyridazine-7-carboxamide] | 5.00 |
| COc1cccc(Cc2cc(C(=O)N[C@H]3CCCC[C@@H]3O)n3ncccc23)c1F [Example 18, N-(cis-1S,2S-2-Hydroxycyclohexyl)-5-(2-fluoro-3-methoxybenzyl)-pyrrolo[1,2-b]pyridazine-7-carboxamide] | 5.43 |

| SMILES | pEC50 |
| --- | --- |
| O=C(N[C@H]1CCCC[C@@H]1O)c1cc(Cc2cccc(F)c2)c2cccnn12 [Example 19, N-(cis-1S,2S-2-Hydroxycyclohexyl)-5-(3-fluorobenzyl)-pyrrolo[1,2-b]pyridazine-7-carboxamide] | 5.68 |
| O=C(NC1CCOCC1)c1cc(Cc2ccc(-n3cccn3)cc2)c2cccnn12 [Example 22, N-(Tetrahydropyran-4-yl)-5-(4-pyrazol-1-ylbenzyl)-pyrrolo[1,2-b]pyridazine-7-carboxamide] | 5.75 |
| O=C(N[C@H]1CCCC[C@@H]1O)c1cc(Cc2ccc(-c3cscn3)cc2)c2cccnn12 [Example 23, N-(cis-1S,2S-2-Hydroxycyclohexyl)-5-(4-thiazol-4-ylbenzyl)-pyrrolo[1,2-b]pyridazine-7-carboxamide] | 6.92 |
| O=C(N[C@H]1CCCC[C@@H]1O)c1cc(Cc2ccc(F)cc2Br)c2cccnn12 [Example 24, N-(cis-1S,2S-2-Hydroxycyclohexyl)-5-(2-bromo-4-fluorobenzyl)-pyrrolo[1,2-b]pyridazine-7-carboxamide] | 5.93 |
| O=C(N[C@H]1CCCC[C@@H]1O)c1cc(Cc2ccc(Br)c(F)c2F)c2cccnn12 [Example 25, N-(cis-1S,2S-2-Hydroxycyclohexyl)-5-(2,3-difluoro-4-bromobenzyl)-pyrrolo[1,2-b]pyridazine-7-carboxamide] | 5.64 |
| O=C(N[C@H]1CCCC[C@@H]1O)c1cc(Cc2ccc(F)c(Br)c2)c2cccnn12 [Example 26, N-(cis-1S,2S-2-Hydroxycyclohexyl)-5-(3-bromo-4-fluorobenzyl)-pyrrolo[1,2-b]pyridazine-7-carboxamide] | 6.19 |
| O=C(N[C@H]1CCCC[C@@H]1O)c1cc(Cc2cccc(Br)c2)c2cccnn12 [Example 27, N-(cis-1S,2S-2-Hydroxycyclohexyl)-5-(3-bromobenzyl)-pyrrolo[1,2-b]pyridazine-7-carboxamide] | 5.77 |
| O=C(N[C@H]1CCCC[C@@H]1O)c1cc(Cc2cccnc2Cl)c2cccnn12 [Example 28, N-(cis-1S,2S-2-Hydroxycyclohexyl)-5-(2-chloropyridin-3-ylmethyl)-pyrrolo[1,2-b]pyridazine-7-carboxamide] | 5.00 |
| O=C(N[C@H]1CCCC[C@@H]1O)c1cc(Cc2ccnc(Br)c2)c2cccnn12 [Example 29, N-(cis-1S,2S-2-Hydroxycyclohexyl)-5-(2-bromopyridin-4-ylmethyl)-pyrrolo[1,2-b]pyridazine-7-carboxamide] | 5.99 |
| O=C(NC1CCOCC1O)c1cc(Cc2cccc(F)c2)c2cccnn12 (stereo not shown) [Example 30, N-(3-Hydroxytetrahydropyran-4-yl)-5-(3-fluorobenzyl)-pyrrolo[1,2-b]pyridazine-7-carboxamide] | 5.78 |
| O=C(NC1CCOCC1O)c1cc(Cc2ccc(Br)cc2)c2cccnn12 (stereo not shown) [Example 31, N-(3-Hydroxytetrahydropyran-4-yl)-5-(4-bromobenzyl)-pyrrolo[1,2-b]pyridazine-7-carboxamide] | 5.99 |
| Cn1cc(-c2ccc(Cc3cc(C(=O)N[C@H]4CCCC[C@@H]4O)n4ncccc34)cn2)cn1 [Example 35, N-(cis-1S,2S-2-Hydroxycyclohexyl)-5-[6-(1-methyl-1H-pyrazol-4-yl)-pyridin-3-ylmethyl]-pyrrolo[1,2-b]pyridazine-7-carboxamide] | 6.22 |
| Cn1cc(-c2ccc(Cc3cc(C(=O)N[C@H]4CCCC[C@@H]4O)n4ncccc34)c(F)c2F)cn1 [Example 36, N-(cis-1S,2S-2-Hydroxycyclohexyl)-5-[2,3-difluoro-4-(1-methyl-1H-pyrazol-4-yl)-benzyl]-pyrrolo[1,2-b]pyridazine-7-carboxamide] | 7.03 |
| Cn1cc(-c2cc(Cc3cc(C(=O)N[C@H]4CCCC[C@@H]4O)n4ncccc34)ccc2F)cn1 [Example 37, N-(cis-1S,2S-2-Hydroxycyclohexyl)-5-[4-fluoro-3-(1-methyl-1H-pyrazol-4-yl)-benzyl]-pyrrolo[1,2-b]pyridazine-7-carboxamide] | 6.00 |
| Cn1cc(-c2cccc(Cc3cc(C(=O)N[C@H]4CCCC[C@@H]4O)n4ncccc34)c2)cn1 [Example 38, N-(cis-1S,2S-2-Hydroxycyclohexyl)-5-[3-(1-methyl-1H-pyrazol-4-yl)-benzyl]-pyrrolo[1,2-b]pyridazine-7-carboxamide] | 5.82 |
